Results: PubChem BioAssay (NCI)
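Compound exposure: 48 hours, 5 concentrations, 96-well plates. The concentration for full growth arrest is given as TGI.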

Columns and labels:
Assay in all cases: DTP human tumour cell line panel, 48 h
M14 melanoma = tested on: M14 melanoma
K-562 leukemia = tested on: K-562 leukemia
COLO 205 colon = tested on: COLO 205 colon
OVCAR-8 ovarian = tested on: OVCAR-8 ovarian
SF-268 CNS = tested on: SF-268 CNS
HT29 colon = tested on: HT29 colon
KM12 colon = tested on: KM12 colon
RXF 393 renal = tested on: RXF 393 renal
SN12C renal = tested on: SN12C renal
SR leukemia = tested on: SR leukemia
HOP-62 NSCLC = tested on: HOP-62 NSCLC
CAKI-1 renal = tested on: CAKI-1 renal
SK-MEL-2 melanoma = tested on: SK-MEL-2 melanoma
T-47D breast = tested on: T-47D breast
HS 578T breast = tested on: HS 578T breast
MDA-MB-231 breast = tested on: MDA-MB-231 breast
PC-3 prostate = tested on: PC-3 prostate
MDA-N = tested on: MDA-N
BT-549 breast = tested on: BT-549 breast

Measured: TGI

C#CCNC(=O)NCCCC(NC(C)=O)C(=O)NCc1ccccc1 (stereo not given)
not listed: SK-MEL-2 melanoma | T-47D breast | HS 578T breast | MDA-MB-231 breast | PC-3 prostate | MDA-N | BT-549 breast
> 100 µM: all other assays above

CCOc1ccc(NC(=O)C(=O)NO)cc1
not listed: T-47D breast | HS 578T breast | MDA-MB-231 breast | PC-3 prostate | MDA-N | BT-549 breast
> 100 µM: all other assays above

COP(=O)(Cc1ccc(/C=C/C#N)o1)OC
not listed: SN12C renal | CAKI-1 renal | SK-MEL-2 melanoma | PC-3 prostate | MDA-N | BT-549 breast
> 100 µM: all other assays above

CC1=NOC2(C1)C(=O)Nc1ccccc12 (stereo not given)
not listed: BT-549 breast
> 100 µM: all other assays above

Cc1ccc(S(=O)(=O)n2c3c(c4ccccc42)CCN2C(=O)C(S(=O)(=O)c4ccccc4)=CCC32)cc1 (stereo not given)
0.409 µM: MDA-MB-231 breast
0.635 µM: SR leukemia
0.378 µM: MDA-N
0.872 µM: CAKI-1 renal
0.645 µM: KM12 colon
0.328 µM: OVCAR-8 ovarian
0.458 µM: COLO 205 colon
0.434 µM: SN12C renal
0.273 µM: RXF 393 renal
0.673 µM: K-562 leukemia
0.475 µM: SK-MEL-2 melanoma
0.375 µM: T-47D breast
0.562 µM: PC-3 prostate | HOP-62 NSCLC
0.48 µM: HT29 colon
9.15 µM: HS 578T breast

CCOCN1COCN=C1NC#N
34.7 µM: RXF 393 renal
76.5 µM: SR leukemia
69.7 µM: COLO 205 colon
not listed: T-47D breast | HS 578T breast | MDA-MB-231 breast | PC-3 prostate | MDA-N | BT-549 breast
> 100 µM: all other assays above

CCOC(=O)[C@]12C(=C(c3ccccc3)O[C@H]3C=CCC[C@H]31)C(=O)C(=O)N2c1ccccc1
46.8 µM: SR leukemia
84.5 µM: K-562 leukemia
not listed: HS 578T breast | MDA-N | BT-549 breast
> 100 µM: all other assays above

CCCCCCCc1cc(OC(=O)c2c(C)cc(OC)cc2O)cc(O)c1C(=O)O
52.2 µM: RXF 393 renal
36.6 µM: M14 melanoma
43.4 µM: CAKI-1 renal
45.9 µM: SF-268 CNS
> 100 µM: K-562 leukemia | HT29 colon
35.2 µM: HOP-62 NSCLC
37.3 µM: COLO 205 colon
36.9 µM: SK-MEL-2 melanoma
77.9 µM: OVCAR-8 ovarian
82.9 µM: SN12C renal
46.2 µM: KM12 colon

O=C1N(c2ccccc2)C2(c3ccccc3)CC3CCCC13S2 (stereo not given)
90.3 µM: PC-3 prostate
80.9 µM: SK-MEL-2 melanoma
not listed: MDA-N
> 100 µM: all other assays above

Cc1ccc(N=NC2S/C(=C(\C#N)c3nc4ccccc4[nH]3)N(c3ccccc3)C2=O)cc1 (stereo not given)
81.5 µM: RXF 393 renal
81.1 µM: HOP-62 NSCLC
> 100 µM: M14 melanoma | K-562 leukemia | COLO 205 colon | OVCAR-8 ovarian | SF-268 CNS | HT29 colon | SK-MEL-2 melanoma | SN12C renal | CAKI-1 renal

COc1ccc(N(CN2C(=O)CCC2C(=O)O)C(C)=O)cc1 (stereo not given)
not listed: RXF 393 renal | SR leukemia | BT-549 breast
> 100 µM: all other assays above

n1onc2c1NC1Nc3nonc3NC1N2 (stereo not given)
not listed: RXF 393 renal | SR leukemia | SK-MEL-2 melanoma | MDA-MB-231 breast | BT-549 breast
> 100 µM: all other assays above

O=C1[C@@H]2C(c3ccc(Cl)cc3Cl)=NO[C@@H]2C(=O)N1c1ccc(Cc2ccc(N3C(=O)[C@H]4C(c5ccc(Cl)cc5Cl)=NO[C@H]4C3=O)cc2)cc1
68.8 µM: RXF 393 renal
not listed: SR leukemia | T-47D breast | HS 578T breast | MDA-MB-231 breast | PC-3 prostate | MDA-N | BT-549 breast
> 100 µM: all other assays above

COc1ccc(/C(Cl)=C(/c2ccc(O)cc2)c2ccc(OCCN(C)C)cc2)cc1
6.49 µM: HT29 colon
4.22 µM: M14 melanoma
22.4 µM: COLO 205 colon | SK-MEL-2 melanoma
18.4 µM: RXF 393 renal
27.5 µM: CAKI-1 renal
24.7 µM: SF-268 CNS
21.1 µM: KM12 colon
26.7 µM: HOP-62 NSCLC
28.9 µM: OVCAR-8 ovarian
26.2 µM: SN12C renal
10.6 µM: SR leukemia

CN(C)c1nc2oc(-c3ccccc3)c(-c3ccccc3)c2c2nncn12
not listed: HOP-62 NSCLC | SK-MEL-2 melanoma | PC-3 prostate | MDA-N | BT-549 breast
> 100 µM: all other assays above

CCOc1ccc(Nc2nc3c(s2)C(=O)c2ccccc2C3=O)cc1
20 µM: PC-3 prostate
27.9 µM: KM12 colon
27 µM: M14 melanoma
30.6 µM: SK-MEL-2 melanoma
27.6 µM: RXF 393 renal
> 100 µM: K-562 leukemia | HS 578T breast
20.7 µM: CAKI-1 renal
13.5 µM: SN12C renal
18.4 µM: MDA-MB-231 breast
46 µM: COLO 205 colon
3.69 µM: MDA-N
32 µM: HOP-62 NSCLC
49.9 µM: T-47D breast
16.7 µM: SF-268 CNS
